This test has as its target EGFR (UniProt P00533).

Drawing on the Kinase Knowledgebase extract (Sharma et al. 2016), this text covers IC50 for 67 compounds.

The structures appear in SMILES notation. ≈ marks a conversion by molar mass, not a printed value. Where “and” joins values, the source holds several entries; their conditions need not be identical. Equal entries are not always repeated.

EGFR, sequence (P00533 whole entry, looked up): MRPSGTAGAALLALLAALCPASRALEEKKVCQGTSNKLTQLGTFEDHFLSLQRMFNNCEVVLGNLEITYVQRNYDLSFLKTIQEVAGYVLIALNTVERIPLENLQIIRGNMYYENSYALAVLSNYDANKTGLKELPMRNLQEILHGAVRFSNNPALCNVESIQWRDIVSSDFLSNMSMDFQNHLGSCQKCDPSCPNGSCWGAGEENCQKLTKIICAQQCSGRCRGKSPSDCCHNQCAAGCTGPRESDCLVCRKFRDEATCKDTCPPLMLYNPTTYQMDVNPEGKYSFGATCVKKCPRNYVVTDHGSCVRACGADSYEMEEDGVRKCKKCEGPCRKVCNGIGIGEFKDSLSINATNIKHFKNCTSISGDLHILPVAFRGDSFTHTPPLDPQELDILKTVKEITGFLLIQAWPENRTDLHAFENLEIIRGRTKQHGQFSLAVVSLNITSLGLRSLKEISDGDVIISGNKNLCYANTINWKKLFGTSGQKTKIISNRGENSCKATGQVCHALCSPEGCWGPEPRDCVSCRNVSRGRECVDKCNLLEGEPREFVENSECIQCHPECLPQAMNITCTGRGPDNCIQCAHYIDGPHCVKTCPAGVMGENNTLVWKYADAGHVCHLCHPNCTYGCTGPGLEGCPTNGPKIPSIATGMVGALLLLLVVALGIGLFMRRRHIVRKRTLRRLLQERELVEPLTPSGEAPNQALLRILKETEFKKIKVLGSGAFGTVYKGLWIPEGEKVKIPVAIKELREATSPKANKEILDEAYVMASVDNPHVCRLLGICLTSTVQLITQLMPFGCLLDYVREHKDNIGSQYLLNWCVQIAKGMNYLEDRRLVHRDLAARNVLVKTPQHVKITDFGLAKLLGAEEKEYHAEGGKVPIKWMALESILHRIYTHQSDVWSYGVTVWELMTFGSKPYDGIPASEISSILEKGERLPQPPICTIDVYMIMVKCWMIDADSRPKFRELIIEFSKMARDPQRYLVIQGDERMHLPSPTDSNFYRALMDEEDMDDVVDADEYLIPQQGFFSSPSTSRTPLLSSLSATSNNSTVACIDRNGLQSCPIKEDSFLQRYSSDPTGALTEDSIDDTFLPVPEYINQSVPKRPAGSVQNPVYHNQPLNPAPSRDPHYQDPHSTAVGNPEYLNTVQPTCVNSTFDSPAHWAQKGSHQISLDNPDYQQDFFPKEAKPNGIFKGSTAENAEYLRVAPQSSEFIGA

On to `COC(=O)c1ccc(Nc2ncnc(-c3ccccc3)n2)cc1`, for which the IC50 was over 4.5 µg/mL.
On to `COc1ccc(Nc2ncnc(Nc3ccc4c(c3)CCC4)n2)cc1OC`, for which the IC50 lay within 0.4 to 2.4 µg/mL (≈ 1.1 to 6.6 µM).
On to `Cc1cccc(Nc2ncnc(N(C)c3cccc(Cl)c3)n2)c1`, for which the IC50 was under 0.4 µg/mL.
Regarding `c1cc(Cn2ccnn2)cc(Nc2ncnc(-n3c(Nc4ccc5[nH]ccc5c4)nc4ccccc43)n2)c1`, the IC50 fell in the range of 2.4 to 3.5 µg/mL (≈ 4.8 to 7.01 µM).
`Fc1ccc(Nc2ncnc(Nc3ccc4[nH]ccc4c3)n2)cc1Cl` yielded a half-maximal inhibitory concentration (IC50) of under 0.4 µg/mL.
Take `C#Cc1cccc(Nc2ncnc(-n3c(=O)[nH]c4ccccc43)n2)c1`: the half-inhibitory concentration (IC50) is 0.4 to 2.4 µg/mL (≈ 1.22 to 7.31 µM).
To `O=C(O)/C=C/c1ccc(Nc2ncnc(Nc3cc(-c4ccco4)[nH]n3)n2)cc1` belongs under 0.4 µg/mL; to `COc1cc(Nc2ncnc(-n3c(OCc4ccccn4)nc4ccccc43)n2)cc(OC)c1OC`, over 4.5 µg/mL; to `Cc1ccc2c(c1)CCCN2c1ncnc(NCc2cccnc2)n1`, over 4.5 µg/mL.
As to `CN(C)c1ccc(Nc2ncnc(-n3c(N)nc4ccccc43)n2)cc1`, the IC50 lay within 2.4 to 3.5 µg/mL (≈ 6.93 to 10.1 µM).
In turn, `COc1cc(Nc2ncnc(Nc3cccc4ccccc34)n2)cc(OCCN2CCOCC2)c1OC` showed an IC50 of under 0.4 µg/mL.
As to `COc1cc(Nc2ncnc(Nc3ccccc3C)n2)cc(OC)c1OC`, the IC50 was in the range of 2.4 to 3.5 µg/mL (≈ 6.53 to 9.53 µM).
The figure for `COc1cc(Nc2ncnc(N3CCN(C)CC3)n2)cc(OC)c1OC` is over 4.5 µg/mL; for `O=c1[nH]c2ccccc2n1-c1ncnc(Nc2ccc(Cl)cc2)n1` it is over 4.5 µg/mL.
In turn, `CC(C)(C)OC(=O)NCc1cccc(Nc2ncnc(Nc3cc(-c4ccccc4)n[nH]3)n2)c1` showed an IC50 of 2.4 to 3.5 µg/mL (≈ 5.23 to 7.63 µM).
`COc1ccc(CCNc2ncnc(N3CCCc4cc(C)ccc43)n2)cc1OC` had an IC50 of over 4.5 µg/mL.
In turn, `COc1ccc(CNc2ncnc(Nc3cc(-c4ccco4)[nH]n3)n2)cc1OC` yielded an IC50 of 0.4 to 2.4 µg/mL (≈ 1.02 to 6.1 µM).
The figure for `COc1cc(Nc2ncnc(-n3c(NCc4nc5ccccc5[nH]4)nc4ccccc43)n2)cc(OC)c1OC` is over 4.5 µg/mL; for `c1ccc(Cn2ncc3cc(Nc4ncnc(Nc5ccc6ncsc6c5)n4)ccc32)cc1` it is under 0.4 µg/mL.
`COc1ccc(N(C)c2ncnc(-n3c(N)nc4ccccc43)n2)cc1`: the IC50 was over 4.5 µg/mL.
To `Nc1nc2ccccc2n1-c1ncnc(Nc2cccc(-c3cnco3)c2)n1` belongs 0.4 to 2.4 µg/mL (≈ 1.08 to 6.48 µM); to `COc1cc(Nc2ncnc(-n3c(N[C@@H](C)c4ccccc4)nc4ccccc43)n2)cc(OC)c1OC`, 2.4 to 3.5 µg/mL (≈ 4.82 to 7.03 µM); to `COc1cc(Nc2ncnc(-n3c(NC4CCCc5ccccc54)nc4ccccc43)n2)cc(OC)c1OC` (configuration not stated), 3.5 to 4.5 µg/mL and 2.4 to 3.5 µg/mL.
Regarding `Oc1ccc(Nc2ncnc(-c3ccccc3)n2)cc1`, the IC50 was over 4.5 µg/mL.
To `CCOC(=O)Cc1cn(-c2ncnc(Nc3cc(OC)c(OC)c(OC)c3)n2)c2ccccc12` belongs over 4.5 µg/mL; to `Nc1nc2ccccc2n1-c1ncnc(Nc2cccc(Cn3ccnn3)c2)n1`, 2.4 to 3.5 µg/mL (≈ 6.24 to 9.1 µM).
Compound `COc1cc(Nc2ncnc(-c3c(O)n(C)c4ccccc34)n2)cc(OC)c1OC` came in with an IC50 of over 4.5 µg/mL.
In turn, `COc1cc(Nc2ncnc(-n3c(NCCCc4ccccc4)nc4ccccc43)n2)cc(OC)c1OC` gave an IC50 of over 4.5 µg/mL.
The figure for `COc1cc(Nc2ncnc(-n3c(Nc4ccc(F)cc4)nc4ccccc43)n2)cc(OC)c1OC` is over 4.5 µg/mL.
The compound `COc1cc(Nc2ncnc(-n3c(NCCc4ccccc4)nc4ccccc43)n2)cc(OC)c1OC` showed an IC50 of 0.4 to 2.4 µg/mL (≈ 0.804 to 4.82 µM).
The compound `COc1cc(Nc2ncnc(-n3c(NCCO)nc4ccccc43)n2)cc(OC)c1OC` displayed an IC50 of over 4.5 µg/mL.
Take `CCN(CC)CCOc1cc(Nc2ncnc(Nc3cc(OC)c(OC)c(OC)c3)n2)ccc1OC`: the IC50 was over 4.5 µg/mL.
To `NC(=O)Cc1cccc(Nc2ncnc(Nc3cccc(Br)c3)n2)c1` belongs under 0.4 µg/mL; to `COc1cccc(Nc2ncnc(-n3c(N)nc4ccccc43)n2)c1`, 2.4 to 3.5 µg/mL (≈ 7.2 to 10.5 µM).
For the compound `c1ccc(CNc2ncnc(Nc3cc(-c4ccco4)n[nH]3)n2)nc1`, the IC50 lay within 0.4 to 2.4 µg/mL (≈ 1.2 to 7.18 µM).
Turning to `COC(=O)c1sccc1Nc1ncnc(N2CCCc3cc(C)ccc32)n1`, the IC50 is over 4.5 µg/mL.
In turn, `CN(c1ccc2c(cnn2Cc2ccccc2)c1)c1ncnc(Nc2cccc(Br)c2)n1` yielded an IC50 of under 0.4 µg/mL.
In turn, `COC(=O)c1ccc(-c2cc(Nc3ncnc(Nc4cccc5ncccc45)n3)[nH]n2)cc1` returned an IC50 of over 4.5 µg/mL.
Take `COc1cc(Nc2ncnc(-c3ccc(N(C)C)nc3)n2)cc(OC)c1OC`: the IC50 was over 4.5 µg/mL.
The figure for `Fc1ccc(Nc2ncnc(Nc3ccc4[nH]ncc4c3)n2)cc1Cl` is under 0.4 µg/mL.
For `COc1cc(Nc2ncnc(-n3c(Nc4cc(OC)c(OC)c(OC)c4)nc4ccccc43)n2)cc(OC)c1OC`, the IC50 is over 4.5 µg/mL.
The figure for `Cc1ccc(Cl)cc1Nc1ncnc(Nc2cc(Cl)ccc2C)n1` is under 0.4 µg/mL.
The figure for `COc1ccc(Nc2ncnc(-n3c(N)nc4ccccc43)n2)cc1O` is 2.4 to 3.5 µg/mL (≈ 6.87 to 10 µM); for `COc1cc(OC)nc(Nc2ncnc(-n3c(=O)[nH]c4ccccc43)n2)n1` it is over 4.5 µg/mL; for `COc1cc(Nc2ncnc(-c3cccnc3NC3CCCc4ccccc43)n2)cc(OC)c1OC` (configuration not stated) it is 3.5 to 4.5 µg/mL (≈ 7.22 to 9.29 µM).
To `COc1cc(Nc2ncnc(-c3cccnc3NC(C)C)n2)ccc1NC(=O)CCCN1CCNCC1` belongs over 4.5 µg/mL; to `COc1cc(NC(=O)Nc2ncnc(Nc3cc(OC)c(OC)c(OC)c3)n2)cc(OC)c1`, over 4.5 µg/mL; to `COc1cc(Nc2ncnc(Nc3c(C)n(C)n(-c4ccccc4)c3=O)n2)cc(OC)c1OC`, over 4.5 µg/mL.
In turn, `COc1cc(Nc2ncnc(N)n2)cc(OC)c1OC` gave an IC50 of over 4.5 µg/mL.
The figure for `COc1ccc(Nc2ncnc(Nc3ccc(N4CCCCC4)cc3)n2)cc1OC` is 0.4 to 2.4 µg/mL (≈ 0.984 to 5.9 µM); for `COc1ccc(Nc2ncnc(Nc3cc(-c4ccccc4)n[nH]3)n2)cc1OC` it is 0.4 to 2.4 µg/mL (≈ 1.03 to 6.16 µM).
`COc1cc(Nc2ncnc(-n3c(N)nc4ccccc43)n2)cc(OC)c1OC` came in with an IC50 of over 4.5 µg/mL.
Regarding `COc1cc(Nc2ncnc(-n3c(NCc4nccs4)nc4ccccc43)n2)cc(OC)c1OC`, the half-inhibitory concentration (IC50) was 2.4 to 3.5 µg/mL (≈ 4.89 to 7.13 µM).
`COc1cc(Nc2ncnc(Nc3cccc4ncccc34)n2)cc(OC)c1OC`: the IC50 lay within 2.4 to 3.5 µg/mL (≈ 5.93 to 8.65 µM).
For `COc1cc(Nc2ncnc(Nc3cccc(CN4CCN(C)CC4)c3)n2)cc(OC)c1OC`, the IC50 is over 4.5 µg/mL.
`COc1cc(C)c(Nc2ncnc(Nc3cc(-c4ccccc4)n[nH]3)n2)cc1OC` showed an IC50 of 0.4 to 2.4 µg/mL (≈ 0.991 to 5.95 µM).
On to `COc1ccc(Nc2ncnc(-n3c(N)nc4ccccc43)n2)cc1OC`, for which the IC50 was over 4.5 µg/mL.
For `COc1cc(Nc2ncnc(-n3c(NCC(N)=O)nc4ccccc43)n2)cc(OC)c1OC`, the concentration for half-maximal inhibition (IC50) is over 4.5 µg/mL.
Turning to `COc1cc(Nc2ncnc(Nc3ccc(N(C)C)cc3)n2)cc(OC)c1OC`, the IC50 fell in the range of 2.4 to 3.5 µg/mL (≈ 6.05 to 8.83 µM).
In the case of `COc1cc(Nc2ncnc(Nc3ccc(C(=O)O)cc3)n2)cc(OC)c1OC`, the IC50 fell in the range of 0.4 to 2.4 µg/mL (≈ 1.01 to 6.04 µM).
The figure for `COc1ccc(Nc2ncnc(Nc3cccc(Br)c3)n2)cc1OC` is under 0.4 µg/mL.
The figure for `COC(=O)C(c1ccccc1)c1ncnc(Nc2cc(OC)c(OC)c(OC)c2)n1` (configuration not stated) is over 4.5 µg/mL; for `COc1cc(CNc2ncnc(Nc3cc(-c4ccco4)n[nH]3)n2)cc(OC)c1OC` it is over 4.5 µg/mL; for `Cc1ccc2c(c1)CCCN2c1ncnc(NCCN2CCOCC2)n1` it is over 4.5 µg/mL.
Take `Fc1ccccc1Nc1ncnc(-c2ccccc2)n1`: the IC50 was over 4.5 µg/mL.
As for `COc1cc(Nc2ncnc(N3c4ccccc4CCC3C)n2)cc(OC)c1OC` (configuration not stated), the IC50 lay in the range of 0.4 to 2.4 µg/mL (≈ 0.982 to 5.89 µM).
The figure for `COC(=O)n1c(=O)n(-c2ncnc(Nc3cc(OC)c(OC)c(OC)c3)n2)c2ccccc21` is over 4.5 µg/mL.

One may read the IC50 as the point on the concentration scale where inhibition reaches its midpoint.
